Measurements: US11484529B2, “Desmethylanethole trithione derivatives for the treatment of diseases linked to mitochondrial reactive oxygen species (ROS) production” (OP2 Drugs, priority 2017, dated 2022)
Entries after “also recorded” stand apart in the source; their conditions may differ.

Experiments:
[1] = test system: isolated mitochondria from rat heart; assay: Mitochondrial respiration / oxidative phosphorylation (oxygraph); type: biochemical
Method: Male Wistar rats (250-325 g; obtained from Janvier Labs, Le Genest-Saint-Isle, France) were killed by stunning and cervical dislocation, and the heart was quickly removed and washed in cold isolation medium containing 100 mM sucrose, 180 mM KCl, 50 mM Tris, 5 mM MgCl2, 10 mM EDTA, and 0.1% (w/v) defatted BSA (pH 7.2).
Isolation of heart mitochondria was performed in a cold chamber. Before homogenization, hearts (about 1.5 g) were minced with scissors and treated for 5 minutes in 5 mL of the same medium supplemented with protease (2 mg of bacterial proteinase type XXIV per mL of isolation buffer) with stirring. The tissue suspension was poured into a 50-mL glass Potter homogenizer, diluted with 20 mL of isolation buffer, then homogenized for 3 minutes using a motorized Teflon pestle. The homogenate was filtered through bolting cloth (Sefar Nitex) to remove debris, and centrifuged at 8,000 g for 10 minutes. The resulting pellet was rinsed with 5 mL of isolation buffer, resuspended in 25 mL of the same buffer, then subjected to low speed centrifugation (400 g) for 8 minutes. […] Protein concentration was determined by the Bradford method (Sigma, kit #B6916) using BSA as standard. […]
(§1) Oxygen consumption rates of heart mitochondria (0.1 mg/mL), incubated in the absence or presence of AOL at increasing doses (from 0 to 80 μM final concentration), were recorded polarographically under constant stirring at 25° C. using a high-resolution oximeter (Oxygraph-2K, Oroboros Instruments, Austria). […]
Isolation of heart mitochondria was performed in a cold chamber. […] Protein concentration was determined by the Bradford method (Sigma, kit # B6916) using BSA as standard. […]
as §1, with “AOX” for “AOL”, “100” for “80”

intrapulmonary arteries = assay: Isometric contraction of intrapulmonary arteries induced by serotonin or endothelin
Method: Intrapulmonary arteries of the first order (IPA1) were divided into short tubular segments with an external diameter of 1.5-2 mm and used for isometric contraction measurement. Arterial rings were mounted in isolated organ bath systems, containing Krebs solution (containing 118.4 mM NaCl, 4.7 mM KCl, 1.2 mM MgSO4, 25 mM NaHCO3, 1.2 mM KH2PO4, 2.5 mM CaCl2) and 11.1 mM D-glucose, pH 7.4 adjusted with NaOH) at 37° C. and bubbled continuously with […]. An initial load of 0.8 to 1 g was applied to arterial rings. Tissues were allowed to equilibrate for 1 hour in Kreb's solution and washed out every 15 minutes. A high KCl solution (80 mM) was applied in order to obtain a reference contraction used to normalize subsequent contractile responses.
Contractile responses to different agonists were then tested by constructing a cumulative concentration-response curve (CCRC) to serotonin (5HT, 10^−4 to 10^−[…]) or endothelin (ET-1, 10^−7 to 10^−10 M). When indicated, AOL or AOX were preincubated during 30 minutes, and then CCRC to agonist was performed in the presence of the drug. High potassium solutions were obtained by substituting an equimolar amount of KCl for NaCl from Kreb's solution. Endothelial function was tested on each ring by examining the relaxation induced by 10 μM carbamylcholine on 0.3 μM Phe-induced preconstricted pulmonary arterial rings. Passive and active mechanical properties were assessed using transducer systems, coupled to IOX software (EMKA Technologies, Paris, France) in order to facilitate data acquisition and analysis.

Row | SMILES | effect on mitochondrial respiration / oxidative phosphorylation ([1]; AOL 5 to 80 μM, glutamate+malate, succinate(+rotenone) or all substrates, substrate, ADP and ATR states) | endothelin-induced contractions (intrapulmonary arteries; AOL preincubated 30 minutes) | serotonin-induced contractions (intrapulmonary arteries; AOL preincubated 30 minutes) | oxidation rate under substrate state and ATR state ([1]; AOX 20 to 100 μM, succinate (+ rotenone)) | concentrations with uncoupling effect on oxidative phosphorylation ([1]; succinate (+ rotenone)) | response of serotonin- and endothelin-induced contractions compared with AOL (intrapulmonary arteries; AOX at 10 μM) | serotonin-induced contractions (intrapulmonary arteries; higher concentrations of AOX (above 10 μM))
1 | COc1ccc(-c2cc(=S)ss2)cc1 [AOL, 5-(4-methoxyphenyl)-3H-1,2-dithiole-3-thione] | no statistical differences in mitochondrial respiration; also recorded: statistically no differences were observed | no effect on endothelin-induced contractions | could relax contractions induced with up to 5·10^−5 M of serotonin |  |  |  | 
2 | Oc1ccc(-c2cc(=S)ss2)cc1 [AOX, 5-(4-hydroxyphenyl)-3H-1,2-dithiole-3-thione] |  |  |  | increase for concentrations up to 50 μM followed by a decrease for concentrations over 50 μM | higher than 20 μM | same pattern of response | contractions induced with 10^−4 M of serotonin could be relaxed
